The target in one assay is T1, LTD4 receptors (Cavia porcellus, UniProt Q2NNR5).
T1 construct: A section of terminal ileum was removed, the lumen cleaned, and the tissue divided into 2.5 cm segments; from tissue; host or cells: ileum and trachea of guinea pig (ileum: male Hartley)
T1 sequence (Q2NNR5 1-340): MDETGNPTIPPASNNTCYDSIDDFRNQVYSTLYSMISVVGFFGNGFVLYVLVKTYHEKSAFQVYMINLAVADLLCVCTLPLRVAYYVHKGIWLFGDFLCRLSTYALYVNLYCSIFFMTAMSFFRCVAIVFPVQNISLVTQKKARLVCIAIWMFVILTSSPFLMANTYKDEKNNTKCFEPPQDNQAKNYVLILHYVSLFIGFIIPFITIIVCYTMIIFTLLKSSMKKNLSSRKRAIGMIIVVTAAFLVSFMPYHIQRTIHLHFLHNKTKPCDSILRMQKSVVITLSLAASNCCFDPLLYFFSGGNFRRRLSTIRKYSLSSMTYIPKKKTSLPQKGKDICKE
Briefly: Antagonism of LTD4 (guinea pig ileum and trachea, pA2). Conditions: *Estimated; negative log of KB; antagonist 30 minute incubation. Here is the method:
Male, Hartley guinea pigs weighing 200-450 grams were killed by decapitation. A section of terminal ileum was removed, the lumen cleaned, and the tissue divided into 2.5 cm segments. The ilea were mounted in 10 ml tissue baths containing Krebs-bicarbonate solution of the following composition in mmoles/liter: KCl, 4.6; CaCl2 ·2H2 O, 1.2; KH2 PO4, 1.2; MgSO4 ·7H2O, 1.2; NaCl, 118.2; NaHCO3, 24.8; and dextrose, 10.0. The bath fluid was maintained at 37° C. and aerated with 95 percent oxygen and 5 percent CO2 In addition, the buffer contained 1×10^-6 M atropine to reduce ileal spontaneous activity. Isometric measurements were made with a Grass FT03C. force-displacement transducer and recorded on a Grass polygraph as change in grams of force. A passive force of 0.5 g was applied to the tissues. After an appropriate equilibration period, single submaximal control responses to pure LTD4 were obtained. Following a five minute exposure of the ileum to an experimental drug, the control concentration of LTD4 was added to the tissue bath. The response of the ileum to LTD4 in the presence of the drug was compared to the response in the absence of the drug.
A more detailed analysis of LTD4 antagonism was then made. In these experiments, cumulative concentration-response curves were obtained to LTD4 in guinea pig ileum and trachea. This was followed by a 30 minute incubation with various concentrations of the experimental drug. The concentration response curve to LTD4 was then repeated in the presence of the antagonist. Only one concentration of antagonist was used on a single tissue. KB values were calculated by the method of Furchgott [Ann. N.Y. Acad. Sci., 139, 553 (1967)] using the following equation. [formula]
Dose ratio refers to the concentration of agonist required to elicit 50 percent of the maximal response ED50) in the presence of the antagonist divided by the ED50 in the absence of the antagonist.

Assay [1] has as its system LTB4 induced cell aggregation (neutrophils). The assay is described as follows: LTB4 Induced Aggregation Assay (neutrophils). Type of assay: cell-based, guinea pig. The settings on record: Cavia porcellus, Neutrophil; for inhibition at 1 µM: drug concentration 10^-6 M; for inhibition at 0.1 µM: drug concentration 10^-7 M. Here is the method:
Neutrophils were elicited by intraperitoneally injecting 20 ml of Dulbecco's calcium and magnesium deficient phosphate buffered saline (PBS) containing 2% oyster glycogen into each of two male Hartley guinea pigs. Eighteen hours later, cells accumulating in the peritoneal cavity were harvested by washing the peritoneum with approximately 100 ml of PBS containing 10 units/ml of heparin. The cells were centrifuged at 200 g for 8 min. and the supernatant fluid discarded. Erythrocytes present in the pellet were lyzed by vigorous agitation of the cells in 9 ml of ice-cold distilled water for approximately 30 seconds. Physiological osmolarity was restored by adding 1.5 ml of 0.6 M KCl. Twelve milliliters of PBS were added and the resuspended cells centrifuged at 200 g for 8 min. at 4°. The pellet was resuspended in 5 ml PBS. The cell concentration was determined and additional buffer added to make the concentration […]; cells per ml.
The aggregation assay was carried out by measuring the amount of LTB4 induced cell aggregation with a Payton single channel aggregometer, model 300B. The apparatus was calibrated by placing a cuvette containing the cell suspension in it and adjusting the zero knob so that the recorder pen rested at 1 mV. A cuvette containing 20% less cells was then inserted into the aggregometer and the output knob adjusted so that the recorder pen rested at 9 mV. With these settings an 8 mV change causes the recorder pen to move 200 mm. When conducting an assay, 0.5 ml of cell suspension (5×10^6 cells) was added to each cuvette. Five microliters of a solution of test compound were then added. Most compounds were initially dissolved in DMSO at 1×10^-2 M and then diluted appropriately with PBS so that the test compound concentration was 1×10^-5 to 1×10^-7 M and the test DMSO concentration was 0.1% or less. A few of the more water insoluble compounds were first dissolved in DMSO at 1 to 6×10^-3 M and then diluted appropriately with PBS. The test concentration of DMSO was never higher than 1%. After a 2 minute equilibration period of cells and test compound, 5 μl of a solution containing CaCl2 (100 mM) and MgCl2 (50 mM) were added. One minute later, 5 μ l of PBS containing LTB4 (3×10^-7 M) were added. The change occurring in the amount of light transmitted during the subsequent minute was measured. […] During a typical experiment, several measurements of the amount of aggregation induced by LTB4 were made and an average value determined. The effect of a test compound on this aggregation was determined by the following formula: [formula]

For assay [2], the target named is T2, specific receptor on the membrane of human neutrophils (leukotriene B4) (Homo sapiens, UniProt Q15722).
T2 construct: Freshly-prepared buffy coat layers from two individuals were obtained from a local blood donor center; endogenous in cells; host or cells: intact human peripheral blood neutrophils from buffy coats of two donors
T2 sequence (Q15722 whole entry): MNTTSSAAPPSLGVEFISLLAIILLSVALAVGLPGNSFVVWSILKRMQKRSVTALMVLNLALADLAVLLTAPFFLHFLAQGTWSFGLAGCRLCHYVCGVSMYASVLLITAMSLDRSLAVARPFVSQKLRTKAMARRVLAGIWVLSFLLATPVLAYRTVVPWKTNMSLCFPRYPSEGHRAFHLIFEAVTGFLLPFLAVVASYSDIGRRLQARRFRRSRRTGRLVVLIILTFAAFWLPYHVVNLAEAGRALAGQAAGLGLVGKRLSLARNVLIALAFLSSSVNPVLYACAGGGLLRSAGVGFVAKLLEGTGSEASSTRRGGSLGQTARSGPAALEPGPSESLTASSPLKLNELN
Briefly: Inhibition of Binding of ^3 H-LTB4 to Peripheral Human Neutrophils. The settings on record: for inhibition at 10 µM / inhibition at 1 µM / inhibition at 0.1 µM: read-out: LTB4 Binding Inhibition; for inhibition at 0.1 µM: drug concentration 10^-7 M. Here is the method:
Cells used in the assay were isolated by standard techniques of centrifugation on Ficoll-Hypaque, dextran 70 sedimentation and hypotonic lysis. The following procedure was used. Freshly-prepared buffy coat layers from two individuals were obtained from a local blood donor center. The cells were mixed and diluted to 484 ml with phosphate buffered saline containing heparin (10 units/ml) and heat-inactivated calf serum (5%). This was divided into 20 ml aliquots and the aliquots layered on top of Ficoll-Paque (12 ml). The material was then centrifuged at 500 g for 40 minutes at room temperature. The resulting upper layer of platelets and mononuclear cells was discarded. The lower layer containing erythrocytes and neutrophils was retained. Buffer was added (1 ml per 4 ml of lower layer) and the suspension mixed. For each milliliter of this mixture, 0.33 ml of 6% Macrodex was added. After stirring, the cells were allowed to sediment for 1 hour at 37° C. The resulting erythrocyte pellet was discarded and the neutrophil enriched supernatant fluid centrifuged at 500 g for 10 minutes at 4° C. Erythrocytes still present in this cell pellet were lysed by incubating the cells with 5-8 ml ice-cold distilled water for 30-45 seconds. Subsequently, the volume was made up to 50 ml by addition of ice-cold buffer and the cells resuspended. The suspension was then centrifuged at 300 g for 10 minutes at 4° C. The cells were finally resuspended at a cell density of 2×10^7 cells/ml in the assay buffer This buffer consisted of Hanks' balanced salt solution and 0.1% ovalbumin (pH 7.3).
The amount of bound ^3 H-LTB4 was then measured and compared with the amount bound in the absence of test compound. The assay was carried out in microcentrifuge tubes by adding first 10 μl test compound dissolved in DMSO, followed by adding 20 μl ^3 H-LTB4 diluted in assay buffer, and finally adding 500 μl of the cell suspension. At the end of the 10 minutes incubation, 300 μl of a mixture of dibutyl and dinonyl phthalate (7:2) were added and the tubes centrifuged for 2 minutes in a microcentrifuge. The radioactivity bound to the cell pellet was measured by scintillation spectroscopy. Appropriate corrections for nonspecific bonding of ^3 H-LTB4 were made.

Where [3] appears, read: drug concentration 10^-5 M, 0.1-0.2 nM ^3 H-LTB4, 10 minutes at 4° C.
The mark [4] stands for this setting: drug concentration 10^-6 M, 0.1-0.2 nM ^3 H-LTB4, 10 minutes at 4° C.
The mark [5] stands for this setting: 0.1-0.2 nM ^3 H-LTB4, 10 minutes at 4° C.

Like-named read-outs stand apart in the source and are kept apart here.

In general, Kb refers to the equilibrium dissociation constant of an antagonist, usually derived from a functional assay. As usually defined, the inhibition is the change of the read-out against control, counted positive when it falls.

Regarding `CCCCCCCCCCOc1ccc(C(=O)c2cccc(C(=O)O)c2)cc1Cc1nnn[nH]1` [Example 3, 3-[4-(Decyloxy)-3-(1-tetrazol-5-ylmethyl]benzoyl]benzoic acid], the Kb on LTD4 receptors was 0.501 µM. For the same compound, in assay [1], the inhibition at 1 µM turned out to be 84% and the inhibition at 0.1 µM came to 2%. For the same compound, in assay [2] (setting [3]), the inhibition at 10 µM was found to be 76%. Moreover, the inhibition at 1 µM in assay [2] (setting [4]) is 26%.

On to `CCCCCCCCCCOc1ccc(C(=O)c2ccccc2C(=O)O)cc1CC(=O)O` [Example 20, 5-(2-Carboxybenzoyl)-2-(decyloxy)benzeneacetic acid], for which the Kb at LTD4 receptors is 1 µM. Also, in assay [1], the inhibition at 1 µM turned out to be 78% and the inhibition at 0.1 µM was 32%. Also, the inhibition at 10 µM in assay [2] (setting [3]) was found to be 71%. Also, the “LTB4 Binding Inhibition” value in assay [2] (setting [4]) is recorded as 35 percent inhibition.

In the case of `CCCCCCCCCCOc1ccc(C(=O)c2cccc(C(=O)O)c2)c(CC(=O)O)c1` [Example 21, 2-(3-Carboxybenzoyl)-5-(decyloxy)benzeneacetic acid], the Kb on LTD4 receptors is 1.41 µM. Besides, in assay [2] (setting [3]), the inhibition at 10 µM was determined as 74%. Also, in assay [2] (setting [4]), the inhibition at 1 µM amounted to 23%.

In the case of `CCCCCCCCCCOc1ccc(C(=O)c2cccc(C(=O)O)c2)cc1CCC(=O)O` [Example 22, 5-(3-Carboxybenzoyl)-2-(decyloxy)benzenepropanoic acid], at LTD4 receptors, the Kb was 1.95 µM. Further, the results for the inhibition at 0.1 µM in assay [1] and in assay [2] (setting [5]) were 83% and 17%, respectively. In assay [2] (setting [3]), the inhibition at 10 µM amounted to 95%. The inhibition at 1 µM in assay [2] (setting [4]) stood at 62%.

In the case of `CCCCCCCCCCOc1ccc(C(=O)c2cccc(-c3nnn[nH]3)c2)cc1CC(=O)O` [Example 24, 2-(Decyloxy)-5-[3-(1H-tetrazol-5-yl)benzoyl]benzeneacetic acid], the Kb at LTD4 receptors is 0.398 µM. Moreover, the inhibition at 10 µM in assay [2] (setting [3]) amounted to 93%. For the same compound, in assay [2] (setting [4]), the inhibition at 1 µM came out at 28%.

In the case of `CCCCCCCCCCOc1ccc(C(=O)c2cccc(C(=O)O)c2)cc1CCc1nnn[nH]1` [Example 28, 3-{4-(Decyloxy)-3-[2-(1H-tetrazol-5-yl)ethyl]benzoyl}benzoic acid], at LTD4 receptors, the Kb was 0.324 µM. For the same compound, in assay [2] (setting [3]), the inhibition at 10 µM was found to be 96%. Besides, the inhibition at 1 µM in assay [2] (setting [4]) turned out to be 55%.

Regarding `CCCCCCCCCCOc1ccc(C(=O)c2cccc(-c3nnn[nH]3)c2)cc1CCC(=O)O` [Example 29, 2-(Decyloxy)-5-[3-(1H-tetrazol-5-yl)benzoyl]benzenepropanoic acid], on LTD4 receptors, the Kb was 0.955 µM. Moreover, the inhibition at 1 µM in assay [1] was 72%; in assay [2] (setting [4]), 71%. For the same compound, the figures for the inhibition at 0.1 µM in assay [1] and in assay [2] (setting [5]) were 14% and 11%, respectively. Besides, the inhibition at 10 µM in assay [2] (setting [3]) turned out to be 98%.

`CCCCCCCCCCOc1ccc(C(=O)c2ccccc2CC(=O)O)cc1CCC(=O)O` [Example 33, 5-[2-(Carboxymethyl)benzoyl]-2-(decyloxy)benzenepropanoic acid]: on LTD4 receptors, the antagonist dissociation constant (Kb) is 1.15 µM. The inhibition at 1 µM in assay [1] came out at 94%; in assay [2] (setting [4]) it was 79%. In addition, the inhibition at 0.1 µM in assay [1] stood at 45%; in assay [2] (setting [5]), 17%. Besides, the inhibition at 10 µM in assay [2] is 100%.

For `CCCCCCCCCCOc1ccc(C(=O)Cc2ccccc2C(=O)O)cc1CCC(=O)O` [Example 34, 5-[(2-Carboxyphenyl)acetyl]-2-(decyloxy)benzenepropanoic acid], the Kb on LTD4 receptors was 1.91 µM.

Regarding `CCCCCCCCCCOc1ccc(C(O)c2cccc(C(=O)O)c2)cc1CC(=O)O` (stereo not shown) [Example 45, 5-[(3--Carboxyphenyl)hydroxymethyl]-2-(decyloxy)benzeneacetic acid], on LTD4 receptors, the Kb is 2 µM. Also, the results for the inhibition at 10 µM in assay [1] (drug concentration 10^-5 M) and in assay [2] (setting [3]) were 77% and 78%, respectively. Also, the inhibition at 1 µM was 11% in assay [1] and 19% in assay [2] (setting [4]).

As to `CCCCCCOc1ccc(C(O)c2cccc(C(=O)O)c2)cc1CC(=O)O` (stereo not shown) [Example 48, 5-[(3--Carboxyphenyl)hydroxymethyl]-2-(hexyloxy)benzeneacetic acid], the Kb on LTD4 receptors was 7.94 µM. Further, the inhibition at 10 µM in assay [2] (setting [3]) was found to be 10%. The inhibition at 1 µM in assay [2] (setting [4]) is -10%.

`CCCCCCCCCCOc1ccc(Oc2cccc(C(=O)O)c2)cc1CCC(=O)O` [Example 56, 5-(3-Carboxyphenoxy)-2-(decyloxy)benzenepropanoic acid]: the Kb at LTD4 receptors was 0.479 µM. Moreover, the inhibition at 10 µM in assay [2] (setting [3]) was 88%. The inhibition at 1 µM in assay [2] (setting [4]) was 41%.

As to `CCOC(=O)CCc1cc(C(=O)c2cccc(C(=O)OCC)c2)ccc1OCCCCCCc1ccc(Cl)cc1` [Example 66, 2-{[6-(4-Chlorophenyl)hexyl]oxy}-5-[3-(ethoxycarbonyl)benzoyl]benzenepropanoic acid, ethyl ester], the Kb at LTD4 receptors was 0.575 µM.

These data come from patent US5171882A, “Leukotriene antagonists” (Eli Lilly and Company, priority 1990, dated 1992).
